SMILES strings stand for the structures.

The subject of series [1] is Resting T-cells. The experiment in a line: LNP delivery of nano-pB-EF1a-GFP DNA to resting T-cells. The format is cell-based. Particulars: nano-pB-EF1a-GFP DNA LNPs 0.38:0.5:0.1:0.02, lipid:nucleic acid 45:1, 24 hr. The text has this: The experiments described in this example used CD4/CD8 positive T-cells isolated from a leukapheresis product from a healthy donor.
The next series has as its system BALB/C mice. The series can be described thus: In vivo intramuscular LNP delivery of fLuciferase mRNA, bioluminescent imaging. Particulars: for Ave flux (p/s) / Avg IM flux n = 2: intramuscular 20 μg fLuciferase mRNA; for Ave flux (p/s): LNP COMPOUND 2/DOPE/Cholesterol/DMG-PEG2000 32.411/32.411/32.411/2.77; for Avg IM flux n = 2: right hind limb, BLI at 4 hr, LNP compound/DOPE/Cholesterol/DMG-PEG2000 33.5/32.0/33.5/1.0, lipid:RNA 25:1. The procedure: Adult female BALB/C mice (n=2/group) were intramuscularly administered in the right hind limb of each mouse 20 μg of 5′-CleanCap-fLuciferase mRNA (TriLink Biotech) formulated with LNP composition comprising COMPOUND 2 as prepared according to Example 2 in the following percentages shown in Table 16:
The location and extent of luciferase expression in treated and untreated mice were determined at 4 hr and 24 hr by bioluminescent imaging (BLI) of anesthetized mice using an IVIS Lumina in vivo imaging system (Perkin Elmer) according to the manufacturer's instructions. Briefly, mice were anesthetized using isoflurane in oxygen, and placed supine on a heated stage. Mice were then administered D-luciferin (Perkin-Elmer #122799) IP, and BLI was performed.
In another experiment, adult female BALB/C mice (n=2/group) were intramuscularly administered in the right hind limb of each mouse 20 μg of 5′-CleanCap-fLuciferase mRNA (TriLink Biotech) formulated with LNP composition comprising one of COMPOUNDS 3-8 as prepared according to Example 3 in the following percentages shown in Table 18:
The location and extent of luciferase expression in treated and untreated mice were determined at 4 hr by bioluminescent imaging (BLI) of anesthetized mice as described above.

Series [2] can be described thus: Physical characterisation of mRNA-containing LNPs (DLS, NTA, zeta potential). The series is classed as physicochemical. Particulars: Fluc mRNA LNPs: compound/DOPE/Cholesterol/DMG-PEG2000 41.44/45.85/10/2.7, lipid:RNA 40:1 (w/w). How it is done:
A series of ten multi-component LNP compositions of the present disclosure comprising exemplary compounds of Formula (I) was prepared by combining various percentages of an exemplary compound of Formula (I), the phospholipid DOPE, the structural lipid cholesterol (Chol) and 1,2-dimyristoyl-sn-glycerol methoxypolyethylene glycol (DMG-PEG2000; Avanti Polar Lipids, Alabaster, Alabama, USA).
Individual 25 mg/ml stock solutions were prepared by solubilizing the lipids in 200-proof HPLC-grade ethanol and stock solutions were stored at −80° C. until formulated. At the time of formulation, the lipid stock solutions were briefly allowed to equilibrate to room temp and then placed on a hot plate maintained at a temperature range of 50-55° C.
A 1 mg/mi solution of the desired mRNA to be incorporated into the LNPs was added to 150 mM sodium acetate buffer (pH 5.2) to form a stock solution and kept on ice. The lipid phase was mixed with the aqueous m RNA phase inside a microfluidic chip using a NanoAssemblr® instrument (Precision Nanosystems, Vancouver, BC, Canada) according to the manufacturer's instructions to form LNP compositions comprising encapsulated mRNAs.
The resultant mRNA LNP compositions were then transferred to a Repligen Float-A-Lyzer dialysis device—having a molecular weight cut off (MWCO) of 8-10 kDa (Spectrum Chemical Mfg. Corp, CA, USA) and processed by dialysis against phosphate buffered saline (PBS) (dialysate:dialysis buffer volume at least 1:200 v/v), pH 7.4 overnight at 4° C. (or alternatively room temperature for at least 4 hours), to remove the 25% ethanol and achieve a complete buffer exchange. In some experiments the LNPs were further concentrated by in an Amicon® Ultra-4 centrifugal filter unit, MWCO-30 kDa (Millipore Sigma, USA) spun at ˜4100×g in an ultracentrifuge. The mRNA LNPs were then stored at 4° C. until further use.
A series of multicomponent LNP compositions comprising one of COMPOUNDS 1-8 described in Example 1 and the mRNA encoding flue was prepared according to Example 2 and the physical characteristics of the resulting LNPs were analyzed.
In a separate experiment, LNP compositions of the present disclosure comprising mRNA encoding firefly luciferase (hereafter “Fluc”; TriLink) and COMPOUNDS 1-8 were prepared as described in Example 2 by combining one of COMPOUNDS 1-8, the phospholipid DOPE, the structural lipid cholesterol (Chol) and 1,2-dimyristoyl-sn-glycerol methoxypolyethylene glycol (DMG-PEG2000) in the percentages presented in Table 8: […]

For series [3], the system named is HEK293T cells. The series can be described thus: In vitro LNP delivery of eGFP mRNA to adherent cells. The series is classed as cell-based. Conditions: 0.125 μg eGFP mRNA per well, 24 hr, flow cytometry, LNP 41.44/45.85/10.0/2.7, lipid:RNA 40:1. The procedure: HEK293T cells were seeded in 96 well plates and grown to 70% confluence in DMEM+10% FBS] under a 5% CO2 atmosphere at 37° C. A 0.125 μg amount of 5′-CleanCap-eGFP mRNA (TriLink Biotech) formulated with LNP compositions comprising COMPOUNDS 1-4 as prepared in Example 3 at the following percentages in Table 10 was added to each well.
After incubating for 24 hr, cells were imaged for GFP expression with a Leica fluorescence microscope and then detached from 96 well plate to quantitate expression by flow cytometry.
For orientation: In flow cytometry, cells or beads pass a laser one at a time.

Series [4] in a line: Physical characterisation of DNA-containing LNPs (DLS, NTA, zeta potential). Conditions: nano-pB-EF1a-GFP DNA LNPs: compound/DOPE/Cholesterol/DMG-PEG2000 38.0/50.0/10.0/2.0, lipid:DNA 45:1 (w/w). The format is physicochemical. The procedure: LNP compositions of the present disclosure comprising DNA, a nanoplasmid encoding a piggyBac transposon, wherein the piggyBac transposon comprised GFP under control of the EF1a promoter (herein referred to as the nano-pB-EF1a-GFP), and one of COMPOUNDS 1-8 were prepared as described in Example 3 by combining one of COMPOUNDS 1-8, the phospholipid DOPE, the structural lipid cholesterol (Chol) and 1,2-dimyristoyl-sn-glycerol methoxypolyethylene glycol (DMG-PEG2000) in the following percentages in Table 20: […]

Series [5] relates to Resting T-cells. The experiment in a line: LNP delivery of eGFP mRNA to resting T-cells. The series is classed as cell-based. Conditions: eGFP mRNA LNPs 0.4144:0.4585:0.1:0.027, lipid:nucleic acid 40:1, 0.5 ug mRNA per well, 24 hrs. The procedure:
In one experiment, LNPs of the present disclosure comprising one of COMPOUNDS 1-4, DOPE, Cholesterol and DMG-PEG2000 at a molar ratio of 0.4144:0.4585:0.1:0.027 and further comprising Cleancap mRNA encoding eGFP were formed on a NanoAssemblr® (Precision Nanosystems). […] Resting T-cells were treated with varying amounts of the four LNP composition and at 24 hrs, the cells were analyzed to determine the percentage of cells that were viable and that expressed […]. The results of the analysis are shown in Table 12 for a dose of 0.5 ug mRNA per well.

The test system of a further series is TF1a cells. The experiment in a line: Genetic modification of suspension cell line by LNP-delivered nanoplasmid transposon. The format is cell-based. Conditions: TF1a cells stably expressing SPB transposase; nanoplasmid transposon LNP 0.38:0.5:0.1:0.02; Day 6, flow cytometry. The procedure:
In general, TF1a cells (a suspension cell line) were engineered to stably express the SPB transposase. Cell were plated at 5e5/ml. LNP comprising a nanoplasmid transposon coding for eGFP under control of the EF1a […] were added to each well at a concentration of […] (0.125 ug total) of DNA per well. Medium was exchanged and cells were split by spinning cells down in a v-bottom plate and resuspending cells in fresh RPMI+10% FBS+2 ug/ml Puromycin media on D4 post LNP addition). Day=6, cells were assessed for GFP expression by epifluorescence microscopy and flow cytometry.
For example, LNP compositions comprising COMPOUND 3 were prepared comprising COMPOUND 3, DOPE, Cholesterol and DMG-PEG2000 at a molar ratio of 0.38:0.5:0.1:0.02 and the nanoplasmid transposon and cells were assessed at Day 6 for GFP expression by epifluorescence microscopy and flow cytometry.

In series [6] the test system is HEK293T cells. The series can be described thus: In vitro LNP delivery of nano-pB-EF1a-GFP DNA to adherent cells. The series is classed as cell-based. Particulars: 0.5 μg nano-pB-EF1a-GFP DNA per well in LNPs, flow cytometry. How it is done: HEK293T cells were seeded in 96 well plates and grown to 70% confluence in [DMEM+10% FBS] under a 5% CO2 atmosphere at 37° C. A 0.5 μg amount of nano-pB-EF1a-GFP DNA formulated with LNP compositions comprising COMPOUNDS 1, 3 & 4 as prepared in Examples 3 and 8 was added to each well. Following treatment with the LNPs, the cells were imaged for GFP+expression with a Leica fluorescence microscope and then detached from 96 well plate to quantitate expression by flow cytometry.

`CC(C)C(CCC1CCC(C(=O)NCCCCCCNC(=O)C2CCC(CCC(SCCN(C)C)C(C)C)C(SCCN(C)C)C2)CC1SCCN(C)C)SCCN(C)C` (stereo not shown) [Compound 2]: the “% Viable GFP+” value in the series with Resting T-cells [1] came out at 4.4%; in the series with HEK293T cells [3] it was 17.5%; in the series on Resting T-cells [5], 5.5%. Further, the “Ave flux (p/s)” value was determined as 4.58E+6 p/s with BALB/C mice (Lipid:RNA 25:1, 4 hr); 3.53E+6 p/s with BALB/C mice (Lipid:RNA 25:1, 24 hr); 9.67E+5 p/s in the series with BALB/C mice (Lipid:RNA 50:1, 4 hr); 8.09E+5 p/s in the series with BALB/C mice (Lipid:RNA 50:1, 24 hr). Further, the “location of luciferase expression (BLI)” value with BALB/C mice (intramuscular 20 μg fLuciferase mRNA in right hind limb) is reported as “detected by BLI predominantly at the injection site”. For the same compound, the “Diameter (DLS; nm)” value in series [2] was determined as 79.6 nm; in series [4] it was 80.6 nm. Further, the results for the “Diameter (NTA; nm)” value in series [2] and in series [4] were 113.8 nm and 105.0 nm, respectively. Besides, the values for the PDI in series [2] and in series [4] were 0.259 and 0.221, respectively. The “Total Particles/ml” value in series [2] is given as 2.97E+10 Particles/ml. Besides, the “Zeta Potential (mV)” value in series [2] is −0.19 mV; in series [4] it was −0.02 mV.

For `CC(C)C(CCC(C)C(CCC1CCC(C(=O)NCCCCCCCCCCCCNC(=O)C2CCC(CCC(SCCN(C)C)C(C)CCC(SCCN(C)C)C(C)C)C(SCCN(C)C)C2)CC1SCCN(C)C)SCCN(C)C)SCCN(C)C` (stereo not shown) [Compound 3], the “% Viable GFP+” value with Resting T-cells [1] was determined as 18.0%; in the series with HEK293T cells [6] it was 97.1%; in the series on HEK293T cells [3] it was 19.4%; with Resting T-cells [5], 10.9%. In addition, the “Avg IM flux n = 2” value in the series on BALB/C mice came to 5.8E+6. The “cells positive for GFP expression” value with TF1a cells is recorded as roughly 9.8%.

As to `CC(C)C(CCC1CCC(C(=O)NCCCCCCCCCCCCNC(=O)C2CCC(CCC(SCCN(C)C)C(C)C)C(SCCN(C)C)C2)CC1SCCN(C)C)SCCN(C)C` (stereo not shown) [Compound 4], the “% Viable GFP+” value is 2.3% with Resting T-cells [1], roughly 17.1% in the series on HEK293T cells [6], 90.1% in the series with HEK293T cells [3] and 2.9% in the series on Resting T-cells [5]. In addition, the “Avg IM flux n = 2” value in the series with BALB/C mice is listed as 2.07E+6.

These data come from US12642870B2, “Compositions and methods for delivery of nucleic acids” (Poseida Therapeutics, Inc., priority 2020, dated 2026).
